Laboratory results taken from ChEMBL document CHEMBL3769312, “2-Sulfonamidopyridine C-region analogs of 2-(3-fluoro-4-methylsulfonamidophenyl)propanamides as potent TRPV1 antagonists” (Bioorg Med Chem, 2016).

Experiments:
[1] = target: T1, Transient receptor potential cation channel subfamily V member 1 (Homo sapiens, UniProt Q8NER1); experiment: Displacement of [3H]RTX from human TRPV1 expressed in CHO cells after 60 mins by scintillation counting analysis; type: cell-based
[2] = target: T1, Transient receptor potential cation channel subfamily V member 1; experiment: Agonist activity at human TRPV1 expressed in CHO cells assessed as (45)Ca2+ uptake after 5 mins by liquid scintillation counting analysis; type: cell-based
[3] = target: T1, Transient receptor potential cation channel subfamily V member 1; experiment: Antagonist activity at human TRPV1 expressed in CHO cells assessed as inhibition of capsaicin-induced (45)Ca2+ uptake after 5 mins by liquid scintillation counting analysis; type: cell-based
Mus musculus = experiment: Analgesic activity in ip dosed formalin-induced mouse pain model after 20 to 30 mins; type: functional

T1 sequence (Q8NER1 whole entry): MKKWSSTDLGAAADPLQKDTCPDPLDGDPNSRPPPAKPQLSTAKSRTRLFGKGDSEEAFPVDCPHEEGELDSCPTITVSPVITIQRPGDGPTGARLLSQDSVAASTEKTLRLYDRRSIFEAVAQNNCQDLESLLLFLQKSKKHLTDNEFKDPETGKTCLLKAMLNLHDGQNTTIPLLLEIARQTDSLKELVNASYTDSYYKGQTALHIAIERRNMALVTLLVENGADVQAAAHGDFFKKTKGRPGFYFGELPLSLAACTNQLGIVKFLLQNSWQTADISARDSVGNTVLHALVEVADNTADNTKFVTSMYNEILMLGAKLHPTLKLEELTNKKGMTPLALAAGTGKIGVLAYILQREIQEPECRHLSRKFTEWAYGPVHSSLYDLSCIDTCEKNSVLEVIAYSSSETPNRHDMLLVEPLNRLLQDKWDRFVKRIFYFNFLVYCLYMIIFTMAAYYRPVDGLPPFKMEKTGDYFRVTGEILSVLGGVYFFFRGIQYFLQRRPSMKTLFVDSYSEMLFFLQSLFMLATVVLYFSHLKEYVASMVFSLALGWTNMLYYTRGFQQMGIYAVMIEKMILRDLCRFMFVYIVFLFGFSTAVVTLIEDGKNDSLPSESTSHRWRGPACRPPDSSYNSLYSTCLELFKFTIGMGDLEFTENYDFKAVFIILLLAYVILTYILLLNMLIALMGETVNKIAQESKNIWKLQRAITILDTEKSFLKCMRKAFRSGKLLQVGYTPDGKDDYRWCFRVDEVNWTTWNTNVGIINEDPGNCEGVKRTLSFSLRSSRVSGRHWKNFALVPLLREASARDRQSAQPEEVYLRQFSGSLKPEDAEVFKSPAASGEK

SMILES | Ki ([1]; read-out: Ki) | EC50 [2] | Ki ([3]; read-out: Ki) | Ki ([1]; cho) | Ki ([3]; cho) | Activity (Mus musculus) | ED50 (Mus musculus)
CC(C(=O)NCc1ccc(C(F)(F)F)nc1N(c1ccc(F)cc1)S(=O)(=O)c1ccccc1)c1ccc(NS(C)(=O)=O)c(F)c1 (configuration not stated) | 7.3 nM | Not Active | 11.8 nM |  |  |  | 
CC1CCN(c2nc(C(F)(F)F)ccc2CNC(=O)[C@@H](C)c2ccc(NS(C)(=O)=O)c(F)c2)CC1 | 2.95 nM | Not Active | 1.26 nM |  |  |  | 
CC(C(=O)NCc1ccc(C(F)(F)F)nc1NS(=O)(=O)c1ccccc1)c1ccc(NS(C)(=O)=O)c(F)c1 (configuration not stated) |  | Not Active |  | Active | Active |  | 
CC1CCN(c2nc(C(F)(F)F)ccc2CNC(=O)C(C)c2ccc(NS(C)(=O)=O)c(F)c2)CC1 (configuration not stated) | 7.9 nM | Not Active | 2.22 nM |  |  |  | 
CC(C(=O)NCc1ccc(C(F)(F)F)nc1N(c1ccccc1)S(=O)(=O)c1ccccc1)c1ccc(NS(C)(=O)=O)c(F)c1 (configuration not stated) | 18.3 nM | Not Active | 6 nM |  |  |  | 
CC(C(=O)NCc1ccc(C(F)(F)F)nc1N(Cc1ccc(Cl)cc1)S(=O)(=O)c1ccccc1)c1ccc(NS(C)(=O)=O)c(F)c1 (configuration not stated) | 1.29 nM | Not Active | 5.77 nM |  |  |  | 
CC(C(=O)NCc1ccc(C(F)(F)F)nc1N(Cc1ccc(F)cc1)S(=O)(=O)c1ccc(F)cc1)c1ccc(NS(C)(=O)=O)c(F)c1 (configuration not stated) | 0.71 nM | Not Active | 2.99 nM |  |  |  | 
Cc1ccc(CN(c2nc(C(F)(F)F)ccc2CNC(=O)C(C)c2ccc(NS(C)(=O)=O)c(F)c2)S(=O)(=O)c2ccc(F)cc2)cc1 (configuration not stated) | 3.28 nM | Not Active | 7.08 nM |  |  |  | 
COc1ccc(CN(c2nc(C(F)(F)F)ccc2CNC(=O)C(C)c2ccc(NS(C)(=O)=O)c(F)c2)S(=O)(=O)c2ccccc2)cc1 (configuration not stated) | 7.5 nM | Not Active | 2.14 nM |  |  |  | 
CC(C(=O)NCc1ccc(C(F)(F)F)nc1N(CC1CCCCC1)S(=O)(=O)c1ccccc1)c1ccc(NS(C)(=O)=O)c(F)c1 (configuration not stated) | 2.3 nM | Not Active | 10 nM |  |  |  | 
CC(C(=O)NCc1ccc(C(F)(F)F)nc1N(Cc1ccc(Cl)cc1)S(=O)(=O)c1ccc(F)cc1)c1ccc(NS(C)(=O)=O)c(F)c1 (configuration not stated) | 0.9 nM | Not Active | 6 nM |  |  |  | 
COc1ccc(CN(c2nc(C(F)(F)F)ccc2CNC(=O)C(C)c2ccc(NS(C)(=O)=O)c(F)c2)S(=O)(=O)c2ccc(F)cc2)cc1 (configuration not stated) | 1.65 nM | Not Active | 7.9 nM |  |  |  | 
CC(C(=O)NCc1ccc(C(F)(F)F)nc1N(Cc1ccc(F)cc1)S(=O)(=O)c1ccccc1)c1ccc(NS(C)(=O)=O)c(F)c1 (configuration not stated) | 2.32 nM | Not Active | 7.37 nM |  |  |  | 
CCCS(=O)(=O)N(Cc1ccccc1)c1nc(C(F)(F)F)ccc1CNC(=O)C(C)c1ccc(NS(C)(=O)=O)c(F)c1 (configuration not stated) |  | Not Active |  |  |  |  | 

Now from value to molecule, other results behind:

Ki ([1]; read-out: Ki) | EC50 [2] | Ki ([3]; read-out: Ki) | Ki ([1]; cho) | Ki ([3]; cho) | SMILES | Activity (Mus musculus) | ED50 (Mus musculus)
698 nM | Not Active | 100 nM |  |  | CC(C(=O)NCc1ccc(C(F)(F)F)nc1N(C)S(=O)(=O)c1ccccc1)c1ccc(NS(C)(=O)=O)c(F)c1 (configuration not stated) |  | 
0.76 nM | Not Active | 8.5 nM |  |  | CC(C(=O)NCc1ccc(C(F)(F)F)nc1N(Cc1ccccc1)S(=O)(=O)c1ccc(Cl)cc1)c1ccc(NS(C)(=O)=O)c(F)c1 (configuration not stated) |  | 
1.85 nM | Not Active | 5.54 nM |  |  | Cc1ccc(CN(c2nc(C(F)(F)F)ccc2CNC(=O)C(C)c2ccc(NS(C)(=O)=O)c(F)c2)S(=O)(=O)c2ccccc2)cc1 (configuration not stated) |  | 
0.54 nM | Not Active | 1.81 nM |  |  | C[C@H](C(=O)NCc1ccc(C(F)(F)F)nc1N(Cc1ccccc1)S(=O)(=O)c1ccccc1)c1ccc(NS(C)(=O)=O)c(F)c1 |  | 
18.1 nM | Not Active | 6.19 nM |  |  | CC(C(=O)NCc1ccc(C(F)(F)F)nc1N(Cc1ccccc1)S(=O)(=O)C(C)C)c1ccc(NS(C)(=O)=O)c(F)c1 (configuration not stated) |  | 
38 nM | Not Active | 11.9 nM |  |  | CCS(=O)(=O)N(Cc1ccccc1)c1nc(C(F)(F)F)ccc1CNC(=O)C(C)c1ccc(NS(C)(=O)=O)c(F)c1 (configuration not stated) |  | 
1.56 nM | Not Active | 3.87 nM |  |  | CC(C(=O)NCc1ccc(C(F)(F)F)nc1N(Cc1ccccc1)S(=O)(=O)c1ccc(F)cc1)c1ccc(NS(C)(=O)=O)c(F)c1 (configuration not stated) |  | 
1.99 nM | Not Active | 5.9 nM |  |  | CC(C(=O)NCc1ccc(C(F)(F)F)nc1N(Cc1ccccc1)S(=O)(=O)c1ccccc1)c1ccc(NS(C)(=O)=O)c(F)c1 (configuration not stated) | Dose-dependent effect | 15.6 mg/kg
410 nM | Not Active | 27.6 nM |  |  | CC(C(=O)NCc1ccc(C(F)(F)F)nc1N(C(C)C)S(=O)(=O)c1ccccc1)c1ccc(NS(C)(=O)=O)c(F)c1 (configuration not stated) |  | 
101 nM | Not Active | 25 nM |  |  | CC(C(=O)NCc1ccc(C(F)(F)F)nc1N(Cc1ccccc1)S(C)(=O)=O)c1ccc(NS(C)(=O)=O)c(F)c1 (configuration not stated) |  | 
